Legend:
[1] = Cytotoxicity XTT, HEK 293; assay type: cell-based; details: human, HEK 293 cells (ATCC CRL-1573), mean ± SD of 3 independent experiments in triplicate, read-out: cytotoxic IC50 HEK 293
Description: (§1) HeLa and HEK 293 cells (ATCC CRL-1573) were cultured as described above and seeded into 96-well plates at 400 cells/well. Test and standard compounds were added to plate wells in triplicate (0.05% DMSO in culture medium) in a range of six concentrations. Following 72 h of incubation, […] of an activated XTT solution was added to the cells (1 mg/mL). The absorbance was measured at 450 nm after 2 h incubation at 37 °C. The growth of the compound-treated cells was compared with the growth of vehicle-treated control cells. IC50 values were calculated with GraphPad Prism 6.0.

[2] = tested on: α-tubulin acetylation in HeLa cells; experiment: Acetyl-α-tubulin sandwich ELISA in HeLa cells; assay type: cell-based, human; details: 25 μM, 48 h
Description: The acetyl-α-tubulin sandwich ELISA Kit (Pathscan® #7204, Cell Signalling) was used to determine tubulin acetylation levels, and Western blotting was used to evaluate histone H4 acetylation, both methods applied to lysates of treated and non-treated HeLa cells (ATCC CCL-2). Cells were cultured in DMEM medium, 4.5 g/L glucose, L-glutamine (Invitrogen), supplemented with 10% heat-inactivated fetal bovine serum (FBS, Biowest), 100 units/mL penicillin, and 100 μg/mL streptomycin, and 1% non-essential amino acids (Invitrogen) at 37 °C with 5% CO2. Prior to ELISA experiments, cells were seeded into 6-well plates at 150,000 cells/well and transfected with the HDAC6-GFP construct (pEGFP.N1-HDAC6, Addgene)[58], using the Lipofectamine 2000 reagent (Invitrogen). Cells were then treated with test compounds, standards or vehicle (0.5% DMSO in culture medium) for 48 h. After the incubation time, cells were washed with cold DPBS (Invitrogen) and lysates were obtained by recovering cells in cold lysis buffer provided in the ELISA kit, supplemented with a protease inhibitor tablet (SigmaFast, Sigma Aldrich). Briefly, cells were harvested in DPBS and centrifuged. The cell pellet was suspended in 100 μL lysis buffer, vortexed, and kept on melting ice for 30 min. Lysates were then obtained by recovering the supernatant after a centrifugation step of 10 min at 11,000 g, 4 °C. Protein concentration was determined by fluorimetry using the Qubit protein assay kit (Invitrogen). Cell lysates were tested at 1 mg/mL following the instructions provided by the ELISA kit manufacturer. For the Western blotting, cells were seeded into 100 mm Petri dishes and treated for 6 h. After the incubation time, cells were washed with cold DPBS (Invitrogen) supplemented with a protease inhibitor tablet (Sigma Fast, Sigma Aldrich), and lysates were obtained by recovering cells in 100 μL cold lysis buffer (10 mM Hepes pH 7.9, 1.5 mM MgCl2, 10 mM KCl, 0.5 mM DTT, 1.5 mM PMSF, 0.2M HCl) the same way as described above. […]

Cytotoxicity XTT, HeLa = assay type: cell-based, human; details: human, HeLa cells, mean ± SD of 3 independent experiments in triplicate, read-out: cytotoxic IC50 HeLa
Description: as §1

HDAC6 = details: cited from earlier work
HEK 293 cells = experiment: Cytotoxicity XTT, HEK 293; assay type: cell-based; details: 72 h, mean ± SD of 3 independent experiments in triplicate, read-out: cytotoxic IC50 HEK 293
Description: as §1

HeLa cells = experiment: Cytotoxicity XTT, HeLa; assay type: cell-based, human; details: 72 h, mean ± SD of 3 independent experiments in triplicate, read-out: cytotoxic IC50 HeLa
Description: as §1

SMILES	IC50 at 72 h [1]	tubulin acetylation [2]	IC50 at 72 h (Cytotoxicity XTT, HeLa)	IC50 (HDAC6)	IC50 (HEK 293 cells)	IC50 (HeLa cells)
CN1CCc2c(c3ccccc3n2Cc2ccc(C(=O)NO)cc2)C1 [Tubastatin A]	2400 ± 600 nM	able to induce tubulin acetylation	11200 ± 400 nM	[…]	–	–
CC(/C=C/C(=O)NO)=C\[C@@H](C)C(=O)c1ccc(N(C)C)cc1 [Trichostatin A]	–	–	–	–	300 ± 20 nM	1500 ± 300 nM
